We go through 36 compounds from US9988400B2 (Genentech, Inc., priority 2013, dated 2018).

The target in the experiment is T1, HEK cells stably transfected with tetracycline inducible hNR1 and hNR2A (Homo sapiens, UniProt Q05586+Q12879).
T1 construct: expressed in transfected cells; host or cells: HEK cells, stably transfected, tetracycline/doxycycline inducible
Nature of the experiment: Assay 1: Cell-Based Assay, cytosolic calcium response to positive allosteric modulators (with 30 μM glycine and 300 nM L-glutamate, EC30). As to conditions: for EC50: cytosolic calcium response, with 30 μM glycine and 300 nM L-glutamate (EC30), — = no plateau was reached; for Max %: responses scaled relative to 100 μM L-glutamate maximal response (100%) and 0 μM L-glutamate (0%). The essentials:
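Cells induced 24 h with 7.5 μg mL^−1 doxycycline plus 500 μM (+)-ketamine, loaded 60 min at 37 °C with calcium dye in Mg-free HBSS (1.8 mM Ca, probenecid, 10 μM (+)-ketamine, pH 7.15). Peak RFU over 5 min after compound addition, scaled to 100 μM L-glutamate (100%) and 0 μM (0%); four-parameter Hill fit for EC50, max % if no plateau.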

T1 sequence (Q12879 23-1464, other chains not shown): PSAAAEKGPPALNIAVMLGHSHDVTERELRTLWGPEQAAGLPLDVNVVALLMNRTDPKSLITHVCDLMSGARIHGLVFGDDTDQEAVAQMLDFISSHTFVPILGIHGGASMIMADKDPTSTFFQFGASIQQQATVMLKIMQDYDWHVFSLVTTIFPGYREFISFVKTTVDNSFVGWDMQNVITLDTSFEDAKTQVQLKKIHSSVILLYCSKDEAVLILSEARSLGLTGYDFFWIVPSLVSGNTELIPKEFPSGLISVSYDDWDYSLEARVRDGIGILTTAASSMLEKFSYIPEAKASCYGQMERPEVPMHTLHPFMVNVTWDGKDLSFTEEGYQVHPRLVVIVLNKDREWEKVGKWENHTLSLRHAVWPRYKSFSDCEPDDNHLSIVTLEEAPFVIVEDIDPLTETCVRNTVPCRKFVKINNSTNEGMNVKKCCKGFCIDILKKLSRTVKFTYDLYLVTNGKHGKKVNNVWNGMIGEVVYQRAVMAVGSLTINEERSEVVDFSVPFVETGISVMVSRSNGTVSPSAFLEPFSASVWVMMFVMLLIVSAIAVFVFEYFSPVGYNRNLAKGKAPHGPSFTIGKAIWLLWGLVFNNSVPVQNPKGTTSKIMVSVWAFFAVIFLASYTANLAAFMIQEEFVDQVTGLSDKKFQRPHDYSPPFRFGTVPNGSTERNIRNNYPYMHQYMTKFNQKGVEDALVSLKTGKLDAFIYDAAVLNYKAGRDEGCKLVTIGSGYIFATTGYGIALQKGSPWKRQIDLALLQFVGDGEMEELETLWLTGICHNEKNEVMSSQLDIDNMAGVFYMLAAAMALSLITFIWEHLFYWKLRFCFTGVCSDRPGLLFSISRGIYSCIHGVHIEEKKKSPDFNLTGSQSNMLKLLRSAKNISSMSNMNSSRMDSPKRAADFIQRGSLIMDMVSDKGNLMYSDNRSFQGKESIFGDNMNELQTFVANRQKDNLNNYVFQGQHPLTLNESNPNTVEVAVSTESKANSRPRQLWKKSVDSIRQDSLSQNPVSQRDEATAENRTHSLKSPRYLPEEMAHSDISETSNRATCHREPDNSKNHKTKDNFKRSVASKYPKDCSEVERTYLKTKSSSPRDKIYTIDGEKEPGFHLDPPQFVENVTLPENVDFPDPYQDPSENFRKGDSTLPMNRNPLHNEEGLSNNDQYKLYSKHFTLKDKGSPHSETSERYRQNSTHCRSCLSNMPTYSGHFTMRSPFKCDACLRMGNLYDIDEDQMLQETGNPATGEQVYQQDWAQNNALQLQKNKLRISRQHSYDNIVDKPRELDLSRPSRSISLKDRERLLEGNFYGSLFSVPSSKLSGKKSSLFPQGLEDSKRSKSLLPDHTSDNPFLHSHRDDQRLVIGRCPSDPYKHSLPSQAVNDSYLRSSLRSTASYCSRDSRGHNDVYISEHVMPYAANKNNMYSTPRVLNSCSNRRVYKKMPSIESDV

On to `Cc1sc2nc(Cn3nc(C(F)(F)F)cc3Cl)cc(=O)n2c1C1CC1C` (single isomer, unassigned) [compound 155], for which the EC50 (Table 3) stood at 0.0616 µM.
The same measure, in the same setting: in the case of `N#CC1CC1c1c(C(F)(F)F)sc2nc(Cn3nc(C(F)(F)F)cc3Cl)cc(=O)n12` (single isomer, unassigned) [compound 207] it was 0.0074 µM.
The same measure, in the same setting: to `N#CC1CC1c1c(C(F)(F)F)sc2nc(Cn3nc(C(F)(F)F)cc3Cl)cc(=O)n12` (single isomer, unassigned) [compound 208] belongs 0.37 µM.
Still for that read-out and setting: in the case of `N#CC1CC1c1c(Cl)sc2nc(Cn3nc(C(F)(F)F)cc3Cl)cc(=O)n12` (single isomer, unassigned) [compound 266] it was 0.0249 µM; in that of `O=c1cc(Cn2nc(C(F)(F)F)cc2Cl)nc2sc(C(F)(F)F)c([C@@H]3C[C@H]3CO)n12` (single isomer, unassigned) [compound 269], 0.0831 µM; in that of `O=c1cc(Cn2nc(C(F)(F)F)cc2Cl)nc2sc(C(F)(F)F)c(C3CC3CO)n12` (single isomer, unassigned) [compound 270], 0.518 µM.
For `Cc1sc2nc(Cn3ccc(C(F)(F)F)n3)cc(=O)n2c1C1CC1C#N` (single isomer, unassigned) [compound 272], the EC50 (Table 3) was found to be 0.252 µM.
Still for that read-out and setting: in the case of `Cc1sc2nc(Cn3ccc(C(F)(F)F)n3)cc(=O)n2c1C1CC1C#N` (single isomer, unassigned) [compound 273] it was 2.08 µM; in that of `Cc1sc2nc(Cn3nc(C(F)(F)F)cc3Br)cc(=O)n2c1[C@@H]1C[C@@H]1C#N` (single isomer, unassigned) [compound 274], 0.012 µM.
Still for that read-out and setting: in the case of `Cc1sc2nc(Cn3nc(C(F)(F)F)cc3Br)cc(=O)n2c1C1CC1C#N` (single isomer, unassigned) [compound 275] it was 0.0737 µM; in that of `N#CC1CC1c1c(C(F)(F)F)sc2nc(Cn3nc(C(F)(F)F)cc3Cl)c(F)c(=O)n12` (single isomer, unassigned) [compound 276], 0.0364 µM; in that of `N#CC1CC1c1c(C(F)(F)F)sc2nc(Cn3nc(C(F)(F)F)cc3Cl)c(F)c(=O)n12` (single isomer, unassigned) [compound 277], 0.155 µM.
For `Cc1sc2nc(Cc3cccc(C(F)(F)F)c3F)cc(=O)n2c1C(C)O` (single isomer, unassigned; enantiomer 1) [Example 27.11, 7-(2-fluoro-3-(trifluoromethyl)benzyl)-3-(1-hydroxyethyl)-2-methyl-5H-thiazolo[3,2-a]pyrimidin-5-one (enantiomer 1)], the concentration giving a half-maximal response (EC50) (Table 2) came out at 25.3 µM.
The same measure, in the same setting: in the case of `Cc1sc2nc(Cc3cccc(C(F)(F)F)c3F)cc(=O)n2c1C(C)O` (single isomer, unassigned; enantiomer 2) [Example 27.12, 7-(2-fluoro-3-(trifluoromethyl)benzyl)-3-(1-hydroxyethyl)-2-methyl-5H-thiazolo[3,2-a]pyrimidin-5-one (enantiomer 2)] it was 40.8 µM.
Consider `Cc1sc2nc(COc3ccc(F)cc3)cc(=O)n2c1C(=O)NCC#N` [Example 1.1, N-(cyanomethyl)-7-((4-fluorophenoxy)methyl)-2-methyl-5-oxo-5H-thiazolo[3,2-a]pyrimidine-3-carboxamide], for which, under “Table 2”, the EC50 worked out at 9.6 µM and the Max % turned out to be 63%.
For the compound `CNC(=O)c1c(C)sc2nc(COc3ccc(F)cc3)cc(=O)n12` [Example 1.2, 7-(4-Fluorophenoxymethyl)-N,2-dimethyl-5-oxo-5H-[1,3]thiazolo[3,2-a]pyrimidine-3-carboxamide], the Max % (Table 2) amounted to 92%.
Turning to `Cc1sc2nc(COc3ccc(F)cc3)cc(=O)n2c1C(=O)N1CCC1` [Example 1.3, 3-[(Azetidin-1-yl)carbonyl]-7-(4-fluorophenoxymethyl)-2-methyl-5H-[1,3]thiazolo[3,2-a]pyrimidin-5-one], the Max % (Table 2) is on record as 45%.
Consider `CCNC(=O)c1c(C)sc2nc(COc3ccc(F)cc3)cc(=O)n12` [Example 1.4, N-ethyl-7-(4-fluorophenoxymethyl)-2-methyl-5-oxo-5H-[1,3]thiazolo[3,2-a] pyrimidine-3-carboxamide], for which, under “Table 2”, the EC50 was determined as 11.2 µM and the Max % turned out to be 59.5%.
`Cc1sc2nc(COc3ccc(F)cc3)cc(=O)n2c1C(=O)NCC(F)(F)F` [Example 1.5, 7-(4-Fluorophenoxymethyl)-2-methyl-5-oxo-N-(2,2,2-trifluoroethyl)-5H-[1,3]thiazolo[3,2-a]pyrimidine-3-carboxamide]: under “Table 2”, the EC50 was 23 µM and the Max % was found to be 51.4%.
Taken in the same sequence, the figures for `CNC(=O)c1c(C)sc2nc(COc3ccc(F)c(F)c3)cc(=O)n12` [Example 1.6, 7-(3,4-Difluorophenoxymethyl)-N,2-dimethyl-5-oxo-5H-[1,3]thiazolo[3,2-a] pyrimidine-3-carboxamide] were 31.6 µM and 64%.
Taken in the same sequence, the figures for `CCNC(=O)c1csc2nc(COc3ccc(F)cc3)cc(=O)n12` [Example 1.7, N-ethyl-7-(4-fluorophenoxymethyl)-5-oxo-5H-[1,3]thiazolo[3,2-a]pyrimidine-3-carboxamide] were 27 µM and 44.8%.
Taken in the same sequence, the figures for `Cc1sc2nc(COc3ccc(F)cc3)cc(=O)n2c1C(N)=O` [Example 1.8, 7-((4-fluorophenoxy)methyl)-2-methyl-5-oxo-5H-thiazolo[3,2-a]pyrimidine-3-carboxamide] were 26.3 µM and 47.4%.
With `Cc1sc2nc(COc3ccc(F)cc3)cc(=O)n2c1C(=O)NO` [Example 1.9, 7-((4-fluorophenoxy)methyl)-N-hydroxy-2-methyl-5-oxo-5H-thiazolo[3,2-a] pyrimidine-3-carboxamide], where the note is “Table 2”, the Max % amounted to 99.5%.
Still for that read-out and setting: in the case of `Cc1sc2nc(COc3ccc(F)cc3)cc(=O)n2c1C(=O)NC(C)C` [Example 1.10, 7-(4-Fluorophenoxymethyl)-2-methyl-5-oxo-N-(propan-2-yl)-5H-[1,3]thiazolo[3,2-a] pyrimidine-3-carboxamide] it was 44%; in that of `Cc1sc2nc(COc3ccc(F)cc3)cc(=O)n2c1C(=O)NCCO` [Example 1.11, 7-(4-Fluorophenoxymethyl)-N-(2-hydroxyethyl)-2-methyl-5-oxo-5H-[1,3]thiazolo[3,2-a]pyrimidine-3-carboxamide], 73%.
The same measure, in the same setting: to `Cc1sc2nc(COc3ccc(F)cc3)cc(=O)n2c1C(=O)NC(C)CO` (centres unmarked) [Example 1.12, 7-(4-Fluorophenoxymethyl)-N-(1-hydroxypropan-2-yl)-2-methyl-5-oxo-5H-[1,3]thiazolo[3,2-a]pyrimidine-3-carboxamide] belongs 45.5%; to `Cc1sc2nc(COc3ccc(F)cc3)cc(=O)n2c1C(=O)NCC1COC1` [Example 1.13, 7-((4-fluorophenoxy)methyl)-2-methyl-N-(oxetan-3-ylmethyl)-5-oxo-5H-thiazolo[3,2-a]pyrimidine-3-carboxamide], 41.6%.
As for `Cc1sc2nc(COc3ccc(F)cc3)cc(=O)n2c1C(=O)NCCCO` [Example 1.14, 7-((4-fluorophenoxy)methyl)-N-(3-hydroxypropyl)-2-methyl-5-oxo-5H-thiazolo[3,2-a]pyrimidine-3-carboxamide], the Max % (Table 2) is recorded as 42.7%.
On the same count and under the same terms, to `Cc1sc2nc(COc3ccc(F)cc3)cc(=O)n2c1C(=O)NC1CC1` [Example 1.15, N-cyclopropyl-7-((4-fluorophenoxy)methyl)-2-methyl-5-oxo-5H-thiazolo[3,2-a]pyrimidine-3-carboxamide] belongs 55.1%; to `CONC(=O)c1c(C)sc2nc(COc3ccc(F)cc3)cc(=O)n12` [Example 1.16, 7-((4-fluorophenoxy)methyl)-N-methoxy-2-methyl-5-oxo-5H-thiazolo[3,2-a] pyrimidine-3-carboxamide], 56.5%.
With `CNC(=S)c1c(C)sc2nc(COc3ccc(F)cc3)cc(=O)n12` [Example 1.17, 7-(4-Fluorophenoxymethyl)-N,2-dimethyl-5-oxo-5H-[1,3]thiazolo[3,2-a]pyrimidine-3-carbothioamide], under “Table 2”, the EC50 was 4 µM and the Max % is reported as 68.6%.
`CCC(=O)c1c(C)sc2nc(COc3ccc(F)cc3)cc(=O)n12` [Example 2.1, 7-((4-fluorophenoxy)methyl)-2-methyl-3-propionyl-5H-thiazolo[3,2-a]pyrimidin-5-one]: under “Table 2”, the EC50 stood at 5.2 µM and the Max % is reported as 51.3%.
On to `CCC(O)c1c(C)sc2nc(COc3ccc(F)cc3)cc(=O)n12` (centres unmarked) [Example 2.2, 7-((4-fluorophenoxy)methyl)-3-(1-hydroxypropyl)-2-methyl-5H-thiazolo[3,2-a]pyrimidin-5-one], for which the Max % (Table 2) came to 96.5%.
For the compound `Cc1sc2nc(COc3ccc(F)cc3)cc(=O)n2c1C(C)O` (centres unmarked) [Example 2.3, 7-(4-Fluorophenoxymethyl)-3-(1-hydroxyethyl)-2-methyl-5H-[1,3]thiazolo[3,2-a]pyrimidin-5-one], under “Table 2”, the concentration giving a half-maximal response (EC50) was 12.6 µM and the Max % amounted to 49.8%.
With `Cc1sc2nc(COc3ccc(F)cc3)cc(=O)n2c1C(C)(C)O` [Example 2.4, 7-(4-Fluorophenoxymethyl)-3-(2-hydroxypropan-2-yl)-2-methyl-5H-[1,3]thiazolo[3,2-a]pyrimidin-5-one], under “Table 2”, the EC50 stood at 3 µM and the Max % amounted to 44.6%.
The like results for `CC(=O)c1c(C)sc2nc(COc3ccc(F)cc3)cc(=O)n12` [Example 2.5, 3-acetyl-7-((4-fluorophenoxy)methyl)-2-methyl-5H-thiazolo[3,2-a]pyrimidin-5-one] were, in that order, 32.9 µM and 115%.

As usually defined, the EC50 is the concentration at which the effect is half-maximal.
